What was measured:
Canine sEH = Canine sEH (Canis lupus familiaris, UniProt A0A8I3NJL8); assay: sEH Inhibitor Screen of Canine sEH; assay type: biochemical; settings: [I] = 100 nM
sEH = sEH (Homo sapiens (Human), UniProt P34913); assay: Activity as inhibitor of sEH (standard assays); assay type: biochemical
Description: Derivatives of urea are transition state mimetics that form a preferred group of sEH inhibitors. […] Any particular urea derivative or other compound can be easily tested for its ability to inhibit sEH by standard assays, such as those discussed herein. The production and testing of urea and carbamate derivatives as sEH inhibitors is set forth in detail in, for example, Morisseau et al., Proc Natl Acad Sci (USA) 96:8849-8854 (1999).
One category of these inhibitors comprises inhibitors that mimic the substrate for the enzyme. The lipid alkoxides (e.g., the 9-methoxide of stearic acid) are an exemplar of this group of inhibitors.

[1] = human volunteers; cited from earlier work
[2] = tested on: horse with pain due to laminitis; assay: Pain (VAS) and blood pressure in one horse with naturally occurring laminitis, multimodal analgesic therapy; assay type: in vivo; settings: before t-TUCB; phenylbutazone 4 mg/kg twice daily PO, gabapentin 20 mg/kg twice daily PO
[3] = Plasma concentrations and pharmacokinetics in the laminitic horse; settings: gabapentin 20 mg/kg BID PO
COX-2 / COX-1 = settings: cited from earlier work
COX-2 = COX-2 (Equus caballus (Horse), UniProt O19183); settings: read-out: 80% maximal inhibitory concentration (IC80) against COX-2; cited from earlier work
[4] = set-up: species or system horse; settings: in vivo
in vivo = settings: Thoroughbred, horse, iv, 0.1 mg/kg

Sequence of Canine sEH (A0A8I3NJL8 1-556): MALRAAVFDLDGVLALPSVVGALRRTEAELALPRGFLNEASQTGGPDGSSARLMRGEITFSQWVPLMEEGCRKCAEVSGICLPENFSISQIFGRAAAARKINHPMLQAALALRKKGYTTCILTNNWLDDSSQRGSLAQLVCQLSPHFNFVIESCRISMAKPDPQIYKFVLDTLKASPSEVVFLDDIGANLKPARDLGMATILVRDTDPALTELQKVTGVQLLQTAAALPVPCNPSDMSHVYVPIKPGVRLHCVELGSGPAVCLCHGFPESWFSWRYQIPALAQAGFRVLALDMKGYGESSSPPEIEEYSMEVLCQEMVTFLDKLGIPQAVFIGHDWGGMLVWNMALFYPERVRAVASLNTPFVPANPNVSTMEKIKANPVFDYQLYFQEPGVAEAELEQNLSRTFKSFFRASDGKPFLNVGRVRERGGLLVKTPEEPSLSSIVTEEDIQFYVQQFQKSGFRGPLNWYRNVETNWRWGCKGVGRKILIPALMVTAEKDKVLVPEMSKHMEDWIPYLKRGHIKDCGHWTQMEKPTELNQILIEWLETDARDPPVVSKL
Sequence of COX-2 (O19183 18-604): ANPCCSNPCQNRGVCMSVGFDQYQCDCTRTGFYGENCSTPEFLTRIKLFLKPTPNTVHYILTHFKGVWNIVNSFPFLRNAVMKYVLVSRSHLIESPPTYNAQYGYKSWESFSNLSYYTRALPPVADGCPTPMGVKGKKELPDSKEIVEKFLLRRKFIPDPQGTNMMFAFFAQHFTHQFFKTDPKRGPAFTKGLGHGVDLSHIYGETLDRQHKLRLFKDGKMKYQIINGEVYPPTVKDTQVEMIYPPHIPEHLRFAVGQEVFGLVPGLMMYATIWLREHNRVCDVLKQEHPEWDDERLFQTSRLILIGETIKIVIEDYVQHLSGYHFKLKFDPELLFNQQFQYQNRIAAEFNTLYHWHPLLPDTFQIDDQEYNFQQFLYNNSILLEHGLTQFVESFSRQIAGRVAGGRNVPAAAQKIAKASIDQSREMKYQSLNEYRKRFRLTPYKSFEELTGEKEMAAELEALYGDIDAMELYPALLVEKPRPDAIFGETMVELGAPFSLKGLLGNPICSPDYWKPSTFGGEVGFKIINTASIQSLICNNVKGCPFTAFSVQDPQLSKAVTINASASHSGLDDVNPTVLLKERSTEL
Sequence of sEH (P34913 whole entry): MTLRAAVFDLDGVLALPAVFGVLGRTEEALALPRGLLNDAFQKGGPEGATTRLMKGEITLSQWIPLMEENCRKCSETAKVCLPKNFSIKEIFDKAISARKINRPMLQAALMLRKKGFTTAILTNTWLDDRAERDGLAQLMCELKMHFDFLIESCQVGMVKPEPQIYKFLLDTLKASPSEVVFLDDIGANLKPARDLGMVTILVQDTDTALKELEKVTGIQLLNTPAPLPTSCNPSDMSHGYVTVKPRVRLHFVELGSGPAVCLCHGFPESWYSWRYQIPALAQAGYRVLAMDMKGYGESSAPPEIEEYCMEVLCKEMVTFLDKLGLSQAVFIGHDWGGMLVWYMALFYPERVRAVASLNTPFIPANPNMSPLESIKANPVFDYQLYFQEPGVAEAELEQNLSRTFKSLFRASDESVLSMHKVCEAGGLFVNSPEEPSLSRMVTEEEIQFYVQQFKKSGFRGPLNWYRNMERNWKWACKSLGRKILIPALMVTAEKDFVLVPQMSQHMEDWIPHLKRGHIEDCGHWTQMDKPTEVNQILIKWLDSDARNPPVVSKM

## O=C(Nc1ccc(OC(F)(F)F)cc1)N[C@H]1CC[C@H](Oc2ccc(-c3nnn[nH]3)cc2)CC1 [compound 2806, 1-(trans-4-(4-(1H-tetrazol-5-yl)-phenoxy)-cyclohexyl)-3-(4-(trifluoromethoxy)-phenyl)-urea]
Canine sEH
  inhibition at 0.1 µM: 99%

## O=C(O)CNC(=O)c1ccc(O[C@H]2CC[C@H](NC(=O)Nc3ccc(OC(F)(F)F)cc3)CC2)cc1 [compound 2283, trans-2-(4-(4-(3-(4-trifluoromethoxy-phenyl)-ureido)-cyclohexyloxy)-benzamido)-acetic acid]
Canine sEH
  inhibition at 0.1 µM: 64%

## CCCCCCCCCCCCNC(=O)NC12CC3CC(CC(C3)C1)C2 [ADU, N-Adamantyl-N′-dodecyl urea]
sEH
  activity as an inhibitor of sEH: particularly high activity on sEH

## NCC1(CC(=O)O)CCCCC1 [gabapentin]
[1]
  plasma concentration associated with analgesia: ~18 µM
[2]
  response of laminitis pain to therapy: refractory
[3]
  lowest measured plasma concentration: 1 µM
[3]; first sampling five hours after dosing
  highest measured plasma concentration: 18 µM

## COc1ccc2c(c1)c(CC(=O)O)c(C)n2C(=O)c1ccc(Cl)cc1 [indomethacin]
COX-2 / COX-1
  COX-2 (IC50)/COX-1 (IC50) ratio: 33

## CCCCC1C(=O)N(c2ccccc2)N(c2ccccc2)C1=O [phenylbutazone]
[2]
  response of laminitis pain to therapy: refractory
COX-2
  IC80: ~23 µM

## O=C(Nc1ccccc1F)N[C@H]1CC[C@H](Oc2ccc(C(=O)O)cc2)CC1 [compound 2736, 4-(trans-4-(3-(2-fluorophenyl)-ureido)-cyclohexyloxy)-benzoic acid]
Canine sEH
  inhibition at 0.1 µM: 80%

## O=C1CCC(NC(=O)Nc2ccc(OC(F)(F)F)cc2)CC1 [compound 2809, 1-(4-oxocyclohexyl)-3-(4-(trifluoromethoxy)-phenyl)-urea]
Canine sEH
  inhibition at 0.1 µM: 51%

## CS(=O)(=O)NC(=O)c1ccc(O[C@H]2CC[C@H](NC(=O)Nc3ccc(OC(F)(F)F)cc3)CC2)cc1 [compound 2728, N-(methylsulfonyl)-4-(trans-4-(3-(4-trifluoromethoxy-phenyl)-ureido)-cyclohexyloxy)-benzamide]
Canine sEH
  inhibition at 0.1 µM: 84%

## Cc1oc(=O)oc1COC(=O)c1ccc(O[C@H]2CC[C@H](NC(=O)Nc3ccc(OC(F)(F)F)cc3)CC2)cc1 [compound 2796, (5-methyl-2-oxo-1,3-dioxol-4-yl)methyl 4-((1r,4r)-4-(3-(4-(trifluoromethoxy)-phenyl)-ureido)-cyclohexyloxy)-benzoate]
Canine sEH
  inhibition at 0.1 µM: 84%

## O=C(Nc1ccc(OC(F)(F)F)cc1)NC1CCC(Oc2ncccn2)CC1 (stereo not shown) [compound 2810, 1-(4-(pyrimidin-2-yloxy)-cyclohexyl)-3-(4-(trifluoromethoxy)-phenyl)-urea]
Canine sEH
  inhibition at 0.1 µM: 52%

## O=C(Nc1ccc(Oc2ccc(C(=O)O)cc2)cc1)Nc1ccc(OC(F)(F)F)cc1 [compound 2803, 4-(4-(3-(4-(trifluoromethoxy)-phenyl)-ureido)-phenoxy)-benzoic acid]
Canine sEH
  inhibition at 0.1 µM: 82%

## COC(=O)c1ccc(NC2CCC(NC(=O)Nc3ccc(OC(F)(F)F)cc3)CC2)cc1 (stereo not shown) [compound 2804, methyl 4-(4-(3-(4-(trifluoromethoxy)-phenyl)-ureido)-cyclohexylamino)-benzoate]
Canine sEH
  inhibition at 0.1 µM: 49%

## O=C(Nc1ccc(OC(F)(F)F)cc1)N[C@H]1CC[C@H](Oc2ccc(C(=O)O)cc2)CC1 [compound 1728, trans-4-{4-[3-(4-Trifluoromethoxy-phenyl)-ureido]-cyclohexyloxy}-benzoic acid]
[4]
  Anisocytosis: Slight
  Bilirubin Direct: 0.1 mg/dL
  Creatinine: 1.1 mg/dL
  Echinocytes: Few
  GGT: 11 IU L^−1
  SDH-37: 0 IU L^−1
In vivo
  half-life: 29.8 h

## O=C(Nc1ccc(OC(F)(F)F)cc1)N[C@H]1CC[C@H](Oc2ccc(C(=O)NO)cc2)CC1 [compound 2761, N-hydroxy-4-(trans-4-(3-(4-(trifluoromethoxy)-phenyl)-ureido)-cyclohexyloxy)-benzamide]
Canine sEH
  inhibition at 0.1 µM: 72%

## O=C(Nc1ccc(OC(F)(F)F)cc1)Nc1ccc(Oc2ccc(C(=O)O)cc2)cc1F [compound 2807, 4-(3-fluoro-4-(3-(4-(trifluoromethoxy)-phenyl)-ureido)-phenoxy)-benzoic acid]
Canine sEH
  inhibition at 0.1 µM: 95%

## O=C(Nc1ccc(OC(F)F)cc1)N[C@H]1CC[C@H](Oc2ccc(C(=O)O)cc2)CC1 [compound 2805, 4-(trans-4-(3-(4-(difluoromethoxy)-phenyl)-ureido)-cyclohexyloxy)-benzoic acid]
Canine sEH
  inhibition at 0.1 µM: 95%

## CC(=O)Oc1ccccc1C(=O)O [Aspirin]
COX-2 / COX-1
  COX-2 (IC50)/COX-1 (IC50) ratio: 0.32
